Assay type in all cases: cell-based
The subject of one experiment is A2780ADR. The experiment in a line: CellTiter 96 Aqueous cell proliferation assay. The note with it: A2780 ADR, 72 hr continuous treatment. From the text:
(§1) Correlation of IC50 to the AML induction drugs Dox and Ara-C were first performed with the adherent bladder cancer cell lines 5637 and 5637R for cytarabine and with the adherent ovarian cancer cell lines A2780 and A2780ADR for doxorubicin. Cell lines 5637 and 5637R (Ara-C resistant) have been described previously (20). A2780 and A2780ADR (doxorubicin resistant) were purchased from Sigma-Aldrich and grown as recommended. IC50 values were obtained by plating 4000 cells per well in 96-well plates the night before treatment, and then allowing the cells to adhere over night. Leukemia cell lines capable of continuous proliferation in suspension and having differential sensitivities to Dox and Ara-C were also obtained for correlation analysis. MV-4-11 (acute monocytic leukemia) and THP-1 (acute monocytic leukemia) human cell lines were purchased from American Type Culture Collection (ATCC, Manassas, Va.). MOLM-13 (acute myeloid leukemia) human cells were purchased from AddexBio (San Diego, Calif.). For leukemia cell lines (suspension cultures), approximately 8,000-11,000 cells were seeded per well in 96-well plates the day of treatment. MV-4-11 cells were grown in IMDM (Iscove's Modified Dulbecco's Media) with 10% FBS, 100 U/ml penicillin, and 100 μg/ml streptomycin. THP-1, A2780, and A2780ADR cells were grown in RPMI-1640 media with 10% FBS, 100 U/ml penicillin, and 100 μg/ml streptomycin. 5637, 5637R, and MOLM-13 cells were grown in RPMI-1640 media with 20% FBS, 100 U/ml penicillin, and 100 μg/ml streptomycin. All cells were cultured at 37° C. in a humidified incubator. The cells were then incubated with increasing doses of cytarabine or doxorubicin continuously for 72 hours. IC50 values were determined using the CellTiter 96 Aqueous Non-Radioactive Cell Proliferation Assay (Promega). […] As shown, 5637 and 5673R have differential sensitivity to cytarabine, while A2780 and A2780ADR have differential sensitivity to doxorubicin. The leukemic suspension cell lines also have differential sensitivity to these two drugs.

The next experiment relates to A2780. Put plainly: CellTiter 96 Aqueous cell proliferation assay. Conditions: Homo sapiens, 72 hr continuous treatment.
Description: as §1

A further experiment concerns MOLM-13. Put plainly: CellTiter 96 Aqueous cell proliferation assay. Conditions: Homo sapiens, 72 hr continuous treatment.
Description: as §1

The subject of the next experiment is MV-4-11. Put plainly: CellTiter 96 Aqueous cell proliferation assay. Conditions: Homo sapiens, MV4-11, 72 hr continuous treatment.
Description: as §1

For the next experiment, the system named is THP-1. The experiment in a line: CellTiter 96 Aqueous cell proliferation assay. Conditions: Homo sapiens, 72 hr continuous treatment.
Description: as §1

In experiment [1] the test system is A2780 and A2780ADR ovarian cancer cell lines. The experiment in a line: doxorubicin-DNA adducts by AMS. The note with it: 10 nM or 100 nM DOX 4 h, then 20 hr drug-free. The protocol: In order to assess the formation and loss of intracellular doxorubicin-DNA adducts, ovarian cancer cells were treated with Dox in culture. For doxorubicin-treated cells, one million ovarian cancer cells were seeded in 60-mm dishes the day before treatment and allowed to attach overnight. Similar to the ARA-C bolus protocol, the ovarian cancer cell lines were treated with a low (10 nM) or a high (100 nM) dose of unlabeled DOX supplemented with 0.8 nM of ^14C-labeled DOX (100 dpm/mL, 0.39-3.7 mCi/mmol specific activity (American Radiolabeled Chemicals, Inc.) for 4 h followed by an additional 20 hr of culturing in drug-free media (FIG. 25C). At 24 hrs, the cells were pelleted and washed. DNA was then isolated from these cells using the Qiamp DNA Blood Kit followed by two phenol and one chloroform extractions to remove intercalated DOX according to a published protocol (19). This protocol left intact covalent DOX-DNA adducts that are known to be formed as a consequence of DOX metabolism. Removal of intercalated DOX is important, since it is noncovalently bound and would otherwise partially diffuse out from the DNA sample causing variable results. Ten micrograms of DNA from each sample was converted to graphite and the ratios of ^14C to total C were measured by AMS. AMS was performed on triplicate DNA samples and the results were converted to drug-DNA adducts per ten million nucleotides.

Results on one compound are retold here after patent US20200010910A1, “Cytotoxic Chemotherapy-Based Predictive Assays for Acute Myeloid Leukemia” (The Regents of The University of California, priority 2017, published 2020).

By IC50 is commonly meant the point on the concentration scale where inhibition reaches its midpoint.

As to `COc1cccc2c1C(=O)c1c(O)c3c(c(O)c1C2=O)C[C@@](O)(C(=O)CO)C[C@@H]3O[C@H]1C[C@H](N)[C@H](O)[C@H](C)O1` [doxorubicin], the IC50 in the experiment with A2780ADR was found to be 12000 nM; in the experiment on A2780 it was 21 nM; in the experiment with MOLM-13, 4 nM; in the experiment on MV-4-11, 3 nM; in the experiment with THP-1, 24 nM. The “doxorubicin-DNA adducts in resistant A2780ADR compared to sensitive A2780” value in experiment [1] is “fewer doxorubicine-DNA adducts”.
